Experimental findings from ChEMBL document CHEMBL1151411, “Plant Anticancer Agents. XIII. Constituents of Austrocedrus chilensis” (1983) are described below.

≈ marks a conversion by molar mass, not a printed value.

For the experiment, the system named is KB. Kind of experiment: Cytotoxicity against human KB cells. Format: functional. The note with it: read-out: ED50 (the source's name).

On to `CC(C)C1=CC2(O)CC[C@H]3C(C)(C)CCC[C@]3(CO)C2=CC1=O` (some centres not stated), for which the EC50 came out at 16 µg/mL (≈ 50.2 µM). In the case of `CC(C)c1cc2c(cc1O)[C@@]1(CO)CCCC(C)(C)[C@@H]1CC2` [PISIFEROL] it was 100 µg/mL (≈ 331 µM).
